The supplement of paper PMC10307832

What was measured:
Test in all cases: relative viability (nuclei count vs DMSO), 5 days (fraction); higher = more cells survive
IU1-47 + Linsitinib = compound: CC1=CC(=C(N1C2=CC=C(C=C2)Cl)C)C(=O)CN3CCCCC3 [IU1-47] + C[C@]1(O)C[C@@H](c2nc(-c3ccc4ccc(-c5ccccc5)nc4c3)c3c(N)nccn32)C1 [Linsitinib] (partner 1 µM)
Outline: (§1)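 Relative viability equals treated-well nuclei counts divided by vehicle-well nuclei counts. Counts came from 4× images of lung cancer cell lines grown in 1536-well plates for 5 days after pin-tool dosing on the day after seeding. Dosing used one drug alone or a fixed anchor-drug dose plus five library-drug doses (not always all listed) in √10 steps, and values are medians of duplicate plates.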

IU1-47 + Navitoclax = compound: CC1=CC(=C(N1C2=CC=C(C=C2)Cl)C)C(=O)CN3CCCCC3 [IU1-47] + CC1(C)CCC(c2ccc(Cl)cc2)=C(CN2CCN(c3ccc(C(=O)NS(=O)(=O)c4ccc(N[C@H](CCN5CCOCC5)CSc5ccccc5)c(S(=O)(=O)C(F)(F)F)c4)cc3)CC2)C1 [Navitoclax] (partner 0.5 µM)
Outline: as §1

IU1-47 + Palbociclib = compound: CC1=CC(=C(N1C2=CC=C(C=C2)Cl)C)C(=O)CN3CCCCC3 [IU1-47] + CC(=O)c1c(C)c2cnc(Nc3ccc(N4CCNCC4)cn3)nc2n(C2CCCC2)c1=O [Palbociclib] (partner 0.5 µM)
Outline: as §1

IU1-47 + Trametinib = compound: CC1=CC(=C(N1C2=CC=C(C=C2)Cl)C)C(=O)CN3CCCCC3 [IU1-47] + CC(=O)Nc1cccc(-n2c(=O)n(C3CC3)c(=O)c3c(Nc4ccc(I)cc4F)n(C)c(=O)c(C)c32)c1 [Trametinib] (partner 0.02 µM)
Outline: as §1

Cell Line | relative viability (IU1-47 + Linsitinib; first compound 0.08 µM) | relative viability (IU1-47 + Linsitinib; first compound 0.253 µM) | relative viability (IU1-47 + Linsitinib; first compound 0.8 µM) | relative viability (IU1-47 + Linsitinib; first compound 8 µM) | relative viability (IU1-47 + Navitoclax; first compound 0.08 µM) | relative viability (IU1-47 + Navitoclax; first compound 0.253 µM) | relative viability (IU1-47 + Navitoclax; first compound 0.8 µM) | relative viability (IU1-47 + Navitoclax; first compound 8 µM) | relative viability (IU1-47 + Palbociclib; first compound 0.08 µM) | relative viability (IU1-47 + Palbociclib; first compound 0.253 µM) | relative viability (IU1-47 + Palbociclib; first compound 0.8 µM) | relative viability (IU1-47 + Palbociclib; first compound 2.53 µM) | relative viability (IU1-47 + Palbociclib; first compound 8 µM) | relative viability (IU1-47 + Trametinib; first compound 0.08 µM) | relative viability (IU1-47 + Trametinib; first compound 0.253 µM) | relative viability (IU1-47 + Trametinib; first compound 0.8 µM) | relative viability (IU1-47 + Trametinib; first compound 2.53 µM) | relative viability (IU1-47 + Trametinib; first compound 8 µM) | relative viability (IU1-47 + Navitoclax; first compound 2.53 µM) | relative viability (IU1-47 + Linsitinib; first compound 2.53 µM)
201T | 1.05 | 1.02 | 1.06 | 1.11 | 1.23 | 1.2 | 1.21 | 1.22 | 0.377 | 0.417 | 0.361 | 0.391 | 0.399 | 0.719 | 0.747 | 0.715 | 0.7 | 0.73 |  | 
A549 | 0.548 | 0.691 | 0.608 | 0.553 | 1.23 | 1.27 | 1.21 | 1.1 |  |  |  |  |  |  |  |  |  |  | 1.26 | 
A-427 | 1.13 | 1.11 | 1.19 | 1.21 | 1.04 | 0.993 | 1.04 | 0.926 | 0.488 | 0.521 | 0.536 | 0.556 | 0.499 | 0.833 | 0.879 | 0.773 | 0.749 | 0.636 |  | 
ABC-1 | 0.887 | 0.768 | 0.986 | 0.777 |  |  |  |  | 0.763 | 0.921 | 0.65 |  | 0.582 |  |  |  |  |  |  | 
BEN | 1.02 | 0.934 | 1.08 | 0.863 | 0.073 | 0.0735 | 0.0687 | 0.0719 | 0.54 | 0.452 | 0.448 | 0.497 | 0.512 | 1.21 | 1.1 | 1.23 | 0.896 | 1.15 | 0.0707 | 0.915
CAL-12T | 0.82 | 0.828 | 0.805 | 0.832 | 1.29 | 1.32 | 1.24 | 1.38 | 0.402 | 0.306 | 0.413 | 0.508 | 0.324 | 0.353 | 0.368 | 0.309 | 0.289 | 0.32 | 1.24 | 0.887
COR-L23 | 0.943 | 1 | 0.943 | 0.982 | 1.1 | 1.1 | 1.21 | 1.22 | 0.313 | 0.32 | 0.284 | 0.245 | 0.279 | 0.579 | 0.578 | 0.595 | 0.534 | 0.788 | 1.16 | 0.899
COR-L 105 | 1.02 | 0.875 | 1.08 | 0.89 | 0.896 | 0.809 | 0.865 | 0.68 | 0.479 | 0.449 | 0.399 | 0.388 | 0.438 | 0.522 | 0.422 | 0.45 | 0.461 | 0.459 | 0.81 | 1.03
Calu-6 | 1.09 | 0.918 | 1.02 | 0.918 | 1.07 | 1.01 | 0.827 | 0.802 |  |  |  |  |  |  |  |  |  |  | 0.867 | 0.986
ChaGo-K-1 |  |  |  |  | 1.15 | 1.15 | 0.895 | 0.625 | 0.96 | 0.915 | 1.05 | 0.897 | 0.819 | 0.927 | 0.869 | 0.958 | 0.813 | 0.814 | 0.889 | 
EBC-1 | 0.664 | 0.888 | 0.925 | 0.881 | 0.487 | 0.479 | 0.393 | 0.299 |  |  |  |  |  |  |  |  |  |  | 0.413 | 0.964
EKVX | 1.19 | 1.18 | 0.943 | 0.861 | 1.24 | 1.17 | 0.965 | 0.882 | 0.391 | 0.397 | 0.419 |  | 0.347 | 0.369 | 0.374 | 0.375 |  | 0.296 | 0.973 | 1.1
EMC-BAC-2 | 0.857 | 0.829 | 0.841 | 0.774 | 1.25 | 1.26 | 1.21 | 1.04 | 0.521 | 0.541 | 0.512 | 0.507 | 0.519 | 0.978 | 0.948 | 0.942 | 1 | 0.946 | 1.16 | 0.864
EPLC-272H | 1.24 | 1.27 | 1.4 | 1.16 | 1.19 | 1.07 | 1.07 | 1.12 | 0.315 | 0.338 | 0.289 |  | 0.336 | 0.259 | 0.28 | 0.264 |  | 0.258 |  | 
H3255 | 1.16 | 1.17 | 0.957 | 0.914 | 0.557 | 0.602 | 0.489 | 0.446 | 0.351 | 0.329 | 0.331 | 0.289 | 0.322 | 0.636 | 0.643 | 0.7 |  | 0.587 | 0.511 | 0.905
HARA | 1.19 | 1.13 | 1.08 | 0.678 | 1.16 | 1.19 | 1.19 | 0.998 | 0.231 | 0.316 | 0.239 |  | 0.221 | 0.802 |  | 0.929 | 0.628 | 0.774 | 1.2 | 0.931
HCC-15 | 0.931 | 0.967 | 0.9 | 0.801 | 0.829 | 0.721 | 0.815 | 0.589 | 0.795 | 0.765 | 0.82 | 0.595 | 0.703 | 0.415 | 0.384 | 0.384 |  | 0.469 | 0.626 | 0.917
HCC-44 | 0.668 | 0.662 | 0.649 | 0.572 | 1.14 | 1.01 | 1 | 0.956 | 1.02 | 0.95 | 0.996 | 0.993 | 1.01 | 1.08 | 1.1 | 1.04 | 1.08 | 0.992 | 0.908 | 0.664
HCC-78 | 0.555 | 0.506 | 0.521 | 0.417 | 0.906 | 0.866 | 0.819 | 0.747 | 0.474 | 0.441 | 0.5 | 0.507 | 0.457 | 0.929 | 0.812 | 0.814 | 0.515 | 0.939 | 0.578 | 0.474
